One data set addresses T1, SGLT1 (Homo sapiens, UniProt P13866).
T1 sequence (P13866 1-664): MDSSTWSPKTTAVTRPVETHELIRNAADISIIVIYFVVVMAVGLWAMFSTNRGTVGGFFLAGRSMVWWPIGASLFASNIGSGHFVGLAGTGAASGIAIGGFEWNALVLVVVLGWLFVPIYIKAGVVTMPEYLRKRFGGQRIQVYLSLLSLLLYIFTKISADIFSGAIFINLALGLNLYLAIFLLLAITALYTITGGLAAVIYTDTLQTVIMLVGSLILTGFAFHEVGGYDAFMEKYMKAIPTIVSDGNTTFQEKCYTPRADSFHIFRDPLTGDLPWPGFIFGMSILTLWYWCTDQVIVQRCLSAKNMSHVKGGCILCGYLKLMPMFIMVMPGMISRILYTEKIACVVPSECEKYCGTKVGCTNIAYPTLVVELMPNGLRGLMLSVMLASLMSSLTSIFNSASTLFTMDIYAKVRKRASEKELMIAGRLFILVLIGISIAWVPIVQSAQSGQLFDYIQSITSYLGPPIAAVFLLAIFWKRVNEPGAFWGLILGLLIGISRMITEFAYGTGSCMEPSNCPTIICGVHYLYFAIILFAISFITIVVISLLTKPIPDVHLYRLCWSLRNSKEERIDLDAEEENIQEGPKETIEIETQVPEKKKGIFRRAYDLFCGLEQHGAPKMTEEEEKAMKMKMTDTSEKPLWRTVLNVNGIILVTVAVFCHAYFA
As to conditions: cited from earlier work.

A short description of data set [1]: stress study on physical stability and chemical stability (80° C., one week). The format is physicochemical. The note with it: for Chemical purity: HPLC. As to the method: The stress study on the physical stability and chemical stability of the diethylamine solvate of the compound of formula (I) and the amorphous compound of formula (I) were carried out. The diethylamine solvate of the compound of formula (I) obtained in Example 3 and the amorphous compound of formula (I) were placed in glass vials respectively in duplicate, about 10 mg each sample. These samples for stability test were placed in an incubator at 80° C. for one week. After being placed for one week, one sample was used for the chemical purity analysis by HPLC method. The other sample was used for the crystal characterization by XRPD.

A further data set concerns the target T2, SGLT2 (Homo sapiens, UniProt P31639).
T2 sequence (P31639 1-672): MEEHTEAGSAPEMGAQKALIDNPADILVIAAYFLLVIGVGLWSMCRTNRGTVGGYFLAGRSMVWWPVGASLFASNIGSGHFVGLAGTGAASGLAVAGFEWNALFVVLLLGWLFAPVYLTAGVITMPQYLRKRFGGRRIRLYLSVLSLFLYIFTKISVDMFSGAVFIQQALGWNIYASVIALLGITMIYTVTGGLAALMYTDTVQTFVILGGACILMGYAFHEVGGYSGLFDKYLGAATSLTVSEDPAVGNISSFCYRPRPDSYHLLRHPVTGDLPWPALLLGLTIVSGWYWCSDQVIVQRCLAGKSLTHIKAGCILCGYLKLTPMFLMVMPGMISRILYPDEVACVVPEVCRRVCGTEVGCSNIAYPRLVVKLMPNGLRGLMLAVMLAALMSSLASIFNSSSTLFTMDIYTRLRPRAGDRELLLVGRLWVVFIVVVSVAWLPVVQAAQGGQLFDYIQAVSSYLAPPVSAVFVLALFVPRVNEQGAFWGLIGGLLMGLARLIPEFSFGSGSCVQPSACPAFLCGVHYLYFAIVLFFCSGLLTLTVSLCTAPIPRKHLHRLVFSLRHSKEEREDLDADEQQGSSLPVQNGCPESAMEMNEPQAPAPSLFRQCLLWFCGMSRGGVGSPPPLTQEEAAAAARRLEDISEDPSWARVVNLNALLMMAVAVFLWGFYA
The note with it: cited from earlier work.

On to `CCc1ccc([C@]23OC[C@](CO)(O2)[C@@H](O)[C@H](O)[C@H]3O)cc1Cc1ccc2c(c1)OCCO2` [compound of formula (I), (1S,2S,3S,4R,5S)-5-(3-((2,3-dihydrobenzo[b][1,4]dioxin-6-yl)methyl)-4-ethylphenyl)-1-(hydroxymethyl)-6,8-dioxabicyclo[3.2.1]octane-2,3,4-triol], for which the “inhibitory effect on SGLT1” value at SGLT1 is “significant inhibitory effect”. Moreover, the “degradation at high temperature” value in data set [1] (80° C., stress stability test) was “changed and degraded immediately”. The Chemical purity was 90.2% in data set [1] (After being placed for one week at 80° C.) and 95.1% in data set [1] (Initial state of the samples). The “inhibitory effect on SGLT2” value on SGLT2 was “very significant inhibitory effect”.
